How the values were obtained:
[1] = tested on: T cells; experiment: T cell adhesion to fibronectin-coated wells after DS pretreatment and activation; assay type: cell-based, human; settings: T cells pretreated with DS at 1 ng/ml, 30 minutes; chemoattractants MIP-1β, SDF-1α or RANTES 20 ng/ml each
Procedure: T cells were pretreated with DS9392 (A), DS9267 or DS8892 (B), at 1 ng/ml, 30 minutes incubation for each, and were then seeded on fibronectin (FN)-coated microtiter wells and activated with either PMA (50 ng/ml), anti-CD3 mAb (15 μg/ml), IL-2 (10 IU/ml) or one of the chemoattractants, MIP-Iβ, SDF-Iα or RANTES (20 ng/ml each). T cell adhesion was then measured.
Human T cells were purified from the peripheral blood of healthy donors. Briefly, human peripheral blood was isolated on Ficoll gradients, washed, resuspended in PBS containing 3% heat-inactivated FCS (Bet Haemek, Israel), and incubated (45 min, 37° C., 7% CO2-humidified atmosphere) on nylon-wool columns (NovaMed; Jerusalem, Israel). Non-adherent cells were eluted and washed, and platelets were removed by centrifugation (700 rpm, 15 min, 18° C.). Residual monocytes were removed by incubation of the cells on tissue culture plates (2 h, 37° C.), after which non-adherent cells were collected. The CD3^+ content of these PBLs was >95%.
Without wishing to be limited by a single hypothesis, binding of the DS to moesin would appear to promote inhibition of T-cell adhesion and migration.

[2] = tested on: Jurkat cells; experiment: 51Cr-labeled Jurkat cell adhesion to fibronectin; assay type: cell-based; settings: DS-9267 100 ng/ml; fibronectin 1 μg/ml; adherent cells determined after 30 minutes
Procedure: The amount of adherent cells was determined 30 minutes later. Non-adherent cells were washed away and the remaining bound cells were lysed. The radioactivity of lysates, representing the amount of fibronectin-adherent cells, was determined using a γ-counter. The results represent the percentage of cells that were bound to the wells from total cells that were added to each well.
Jurkat cells, a CD4+ T-lymphoma cell line, were maintained in medium consisted of RPMI 1640 (Bet Haemek, Israel), supplemented with 10% cosmic calf serum (HyClone Laboratories), 2 mM L-glutamin and 1% Pen-Strep (Bet Haemek, Israel), at 37° C., in an atmosphere of 5% CO2.
It was shown that certain heparin- and heparan sulfate-derived DS induced, in a dose-dependent manner, the adhesion of human T cells to both ECM and immobilized fibronectin (6). This adhesion appears to involve β1 integrin recognition and activation and is associated with specific intracellular activation pathways (6). Since moesin is expressed on T cells, antibody to moesin was examined for the potential to block the ability of DS to induce adhesion in T cells.

[3] = biological target: T1, recombinant moesin (Homo sapiens, UniProt P26038); experiment: Binding of heparin-disaccharide to immobilized recombinant moesin (plate assay, anti-heparan sulfate mAb detection); settings: plates coated with recombinant moesin or purified BSA, detection with anti-heparan sulfate mAb and anti-rat IgM Ab, duplicate
T1 construct: The plasmid pGEX-KG-human moesin residues 1-577 (pGhuMo); GST (cleaved yes); made in house; host or cells: Escherichia coli
T1 sequence (P26038 whole entry, the tested form may be a part): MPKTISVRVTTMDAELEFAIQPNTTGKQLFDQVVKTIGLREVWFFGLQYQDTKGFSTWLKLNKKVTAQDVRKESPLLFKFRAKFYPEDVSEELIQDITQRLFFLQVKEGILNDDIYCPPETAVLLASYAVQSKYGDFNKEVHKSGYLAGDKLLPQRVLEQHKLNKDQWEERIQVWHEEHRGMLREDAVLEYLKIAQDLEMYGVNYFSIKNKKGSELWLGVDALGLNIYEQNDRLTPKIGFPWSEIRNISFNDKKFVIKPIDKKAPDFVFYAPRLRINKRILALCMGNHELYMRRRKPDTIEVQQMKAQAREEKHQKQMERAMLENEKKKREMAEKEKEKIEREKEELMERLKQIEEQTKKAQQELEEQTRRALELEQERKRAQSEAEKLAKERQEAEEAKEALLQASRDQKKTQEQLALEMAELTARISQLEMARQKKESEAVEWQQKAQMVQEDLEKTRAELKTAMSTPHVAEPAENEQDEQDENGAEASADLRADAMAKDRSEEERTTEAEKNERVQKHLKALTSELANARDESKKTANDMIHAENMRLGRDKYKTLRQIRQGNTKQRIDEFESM
Procedure: Following coating, DS-9392 was added to the plates, incubated and washed. Detection was performed using an anti-heparan sulfate mAb followed by an anti-rat IgM Ab. Each experiment was performed in duplicate. The results represent mean and SD.
The plasmid pGEX-KG-human moesin residues 1-577 (pGhuMo) (provided by Prof. Furthhmayer [Stanford, Calif.]) contains human moesin as a fusion protein to glutathione S-transferase (GST). Escherichia coli (E. coli) bacteria were transformed with pGhuMo and grown in L-broth containing penicillin (100 μg/ml). These bacteria were induced to express the fusion protein with 100 μM isopropyl β-D-thiogalactopyranoside (IPTG). The recombinant protein was bound to a glutathione-agarose column (Sigma) and cleaved with thrombin (Pharmacia; Piscataway, N.J.). The purified protein was dialyzed against PBS at 4° C. and stored at −70^cC. The purity and integrity of the protein were determined by size separation using SDS-polyaclrylamide gel electrophoresis (PAGE), Coomassie blue staining, and Western blotting with the anti-human moesin mAb clone 38/87. The protein was quantitated by densitometric analysis of recombinant moesin and known amounts of BSA, which were used to construct a standard curve.
Since moesin binds to heparin and heparan sulfate (1), disaccharide (DS) derived from heparin was also tested to see if it could also bind to moesin.

[4] = tested on: HT-29 cells; experiment: TNFα-induced IL-8 / IL-1β secretion from HT-29 cells (ELISA); assay type: cell-based; settings: DS-9267 pre-incubated 30 min with increasing concentrations of recombinant human moesin; TNFα-stimulated HT-29 cells, 24 hours
Procedure: Following culture, the cells were pre-incubated for 30 minutes with either anti-moesin or control antibody (anti HSP-60). Then DS-9267 was added for 30 minutes, after which TNFα (200 ng/ml) was added and the cells were incubated for additional 20 hours. Subsequently, the supernatants were collected and the level of IL-8 was determined.
Following culture, the cells were supplemented with fresh medium and the DS-9267 which was pre-incubated for 30 minutes with recombinant moesin at the indicated concentrations was added to all cells except for the controls. The culture was continued for 24 hours. Subsequently, the supernatants were collected and assayed for the concentrations of IL-8 (A) and IL-1β (B).
Epithelial cells were grown as confluent monolayer's in 24-well tissue culture plates. […] Following culture, the supernatants were harvested and analyzed for cytokine secretion. […]
IL-8 concentration was measured by ELISA. […] IL-1β concentration was measured by an ELISA kit (Genzyme, Cambridge, Mass.) according to the manufacturer's instructions.
It has been shown that disaccharide molecules derived from heparin and from heparan sulfate can inhibit the secretion of IL-8 and IL-1β by HT-29 cells. […] Subsequently, the cells were treated with TNFα and the secretion of IL-8 was assessed. […]

Row | binding to immobilized recombinant moesin versus BSA [3] | binding to immobilized recombinant moesin versus BSA ([3]; listed as Heparin-DS) | Molecule | chemokine-mediated T cell adhesion to fibronectin [1] | Jurkat cell adhesion to fibronectin [2] | effect of recombinant moesin on the inhibitory effect of DS on IL-8 and IL-1β secretion [4]
1 | – | – | O=C(O)C1=CC(O)C(OS(=O)(=O)O)C(OC2C(COS(=O)(=O)O)OC(O)C(NS(=O)(=O)O)C2O)O1 (stereo not drawn) [DS-9267, 2-O-sulfate-4-deoxy-4-en-iduronic acid-(alpha.-1,4)-2-deoxy-2-N-sulfate-6-O-sulfateglucosamine] | specifically inhibits chemokine-mediated T cell adhesion | induced | –
2 | The difference was significant | binds to moesin, and not to BSA | O=C(O)C1=CC(O)C(OS(=O)(=O)O)C(OC2C(CO)OC(O)C(NS(=O)(=O)O)C2O)O1 (stereo not drawn) [DS-9392, 2-O-Sulfate-4-deoxy-4-en-iduronic acid-(alpha-1,4)-2-deoxy-2-N-sulfateglucosamine] | specifically inhibits chemokine-mediated T cell adhesion | – | –
3 | – | – | recombinant moesin: Recombinant human moesin residues 1-577, expressed in E. coli as GST fusion and cleaved with thrombin (protein, UniProt P26038 2-577, looked up, GST tag removed by thrombin, Recombinant human moesin residues 1-577, expressed in E. coli as GST fusion and cleaved with thrombin) Moesin: PKTISVRVTTMDAELEFAIQPNTTGKQLFDQVVKTIGLREVWFFGLQYQDTKGFSTWLKLNKKVTAQDVRKESPLLFKFRAKFYPEDVSEELIQDITQRLFFLQVKEGILNDDIYCPPETAVLLASYAVQSKYGDFNKEVHKSGYLAGDKLLPQRVLEQHKLNKDQWEERIQVWHEEHRGMLREDAVLEYLKIAQDLEMYGVNYFSIKNKKGSELWLGVDALGLNIYEQNDRLTPKIGFPWSEIRNISFNDKKFVIKPIDKKAPDFVFYAPRLRINKRILALCMGNHELYMRRRKPDTIEVQQMKAQAREEKHQKQMERAMLENEKKKREMAEKEKEKIEREKEELMERLKQIEEQTKKAQQELEEQTRRALELEQERKRAQSEAEKLAKERQEAEEAKEALLQASRDQKKTQEQLALEMAELTARISQLEMARQKKESEAVEWQQKAQMVQEDLEKTRAELKTAMSTPHVAEPAENEQDEQDENGAEASADLRADAMAKDRSEEERTTEAEKNERVQKHLKALTSELANARDESKKTANDMIHAENMRLGRDKYKTLRQIRQGNTKQRIDEFESM | – | – | antagonized the inhibitory effect of the DS in a dose-dependent manner
